# Measured values reported in US20080103158A1, “METHODS FOR TREATING DELAYING THE PROGRESSION OF ALZHEIMER'S DISEASE WITH HETEROCYCLIC COMPOUNDS” (ZENYAKU KOGYO KABUSHIKI KAISHA, priority 2006, published 2008).
row,SMILES,melting point
1,"CC(C)OC1=CC=CN2C1=NC(=O)C2(Cc1ccccc1)Cc1ccccc1 [Compound 2, 3,3-dibenzyl-8-isopropoxyimidazo[1,2-a]pyridin-2(3H)-one]",247 to 248 °C
2,"COC1=CC=CN2C1=NC(=O)C2(Cc1ccccc1)Cc1ccccc1 [Compound 3, 3,3-dibenzyl-8-methoxyimidazo[1,2-a]pyridin-2(3H)-one]",274 to 275 °C
3,"O=C1N=C2C(OCC3CC3)=CC=CN2C1(Cc1ccccc1)Cc1ccccc1 [Compound 4, 3,3-dibenzyl-8-cyclopropylmethyloxy-imidazo[1,2-a]pyridin-2(3H)-one]",236 to 237 °C
4,"C=CCOC1=CC=CN2C1=NC(=O)C2(Cc1ccccc1)Cc1ccccc1 [Compound 6, 8-allyloxy-3,3-dibenzylimidazo[1,2-a]pyridin-2(3H)-one]",214 to 215 °C
5,"CC(c1ccccc1)C1(C(C)c2ccccc2)C(=O)N=C2C(OCc3ccccc3)=CC=CN21 (centres unmarked) [Compound 8, 8-benzyloxy-3,3-bis(1-phenylethyl)imidazo[1,2-a]pyridin-2(3H)-one]",234 to 235 °C
6,"CC1=CC2=NC(=O)C(Cc3ccccc3)(Cc3ccccc3)N2C(C)=C1 [Compound 10, 3,3-dibenzyl-5,7-dimethylimidazo[1,2-a]pyridin-2(3H)-one]",237 to 238 °C
7,"O=C1N=C2C(OC3CCCC3)=CC=CN2C1(Cc1ccccc1)Cc1ccccc1 [Compound 12, 3,3-dibenzyl-8-cyclopentyloxyimidazo[1,2-a]pyridin-2(3H)-one]",268 to 269 °C
8,"O=C1N=C2C(Cl)=CC(Cl)=CN2C1(Cc1ccccc1)Cc1ccccc1 [Compound 13, 3,3-dibenzyl-6,8-dichloroimidazo[1,2-a]pyridin-2(3H)-one]",260 to 261 °C
9,"O=C1N=C2C(Cl)=CC(C(F)(F)F)=CN2C1(Cc1ccccc1)Cc1ccccc1 [Compound 14, 3,3-dibenzyl-8-chloro-6-trifluoromethylimidazo[1,2-a]pyridin-2(3H)-one]",234 to 236 °C
10,"CC1=CC=CN2C1=NC(=O)C2(Cc1ccncc1)Cc1ccncc1 [Compound 16, 8-methyl-3,3-bis(4-pyridylmethyl)imidazo[1,2-a]pyridin-2(3H)-one]",228 to 230 °C
11,"O=C1N=C2C=CC=CN2C1(Cc1cccc(Cl)c1)Cc1cccc(Cl)c1 [Compound 19, 3,3-bis(3-chlorobenzyl)imidazo[1,2-a]pyridin-2(3H)-one]",271 to 272 °C
12,"C=CCC1(CC=C)C(=O)N=C2C=CC=CN21 [Compound 24, 3,3-diallylimidazo[1,2-a]pyridin-2(3H)-one]",64 to 66 °C
13,"C=CCC1(CC=C)C(=O)N=C2C(OCc3ccccc3)=CC=CN21 [Compound 25, 3,3-diallyl-8-benzyloxyimidazo[1,2-a]pyridin-2(3H)-one]",160 to 162 °C
14,"O=C1N=C2C=CC=CN2C1(CCCc1ccccc1)CCCc1ccccc1 [Compound 26, 3,3-bis(3-phenyl-1-propyl)imidazo[1,2-a]pyridin-2(3H)-one]",227 to 228 °C
15,"O=C1N=C2C=CC=CN2C12Cc1cccc3cccc(c13)C2 [Compound 27, spiro[imidazo[1,2-a]pyridin-2(3H)-one-3,2′-[2,3]dihydrophenarene]]",262 °C (dec.)
16,"O=C1N=C2C=CC=CN2C1(Cc1ccc(F)cc1F)Cc1ccc(F)cc1F [Compound 28, 3,3-bis(2,4-difluorobenzyl)imidazo[1,2-a]pyridin-2(3H)-one]",269 to 271 °C
17,"CCCC1(CCC)C(=O)N=C2C=CC=CN21 [Compound 29, 3,3-dipropylimidazo[1,2-a]pyridin-2(3H)-one]",73 to 75 °C
18,"O=C1N=C2C=CC=CN2C1(Cc1cccs1)Cc1cccs1 [Compound 30, 3,3-bis(2-thienylmethyl)imidazo[1,2-a]pyridin-2(3H)-one]",289.5 °C (dec.)
19,"CC(=O)NC1=CC=CN2C1=NC(=O)C2(Cc1ccccc1)Cc1ccccc1 [Compound 31, 8-acetylamino-3,3-dibenzylimidazo[1,2-a]pyridin-2(3H)-one]",235 to 237 °C
20,"O=C1N=C2C=CC=CN2C1(Cc1ccco1)Cc1ccco1 [Compound 32, 3,3-bis(2-furylmethyl)imidazo[1,2-a]pyridin-2(3H)-one]",205 °C (dec.)
21,"CC1(C)C(=O)N=C2C=CC=CN21 [Compound 33, 3,3-dimethylimidazo[1,2-a]pyridin-2(3H)-one]",200 to 202 °C
22,"CCCCC1(CCCC)C(=O)N=C2C=CC=CN21 [Compound 34, 3,3-dibutylimidazo[1,2-a]pyridin-2(3H)-one]",100.5 to 102 °C
23,"C#CCC1(CC#C)C(=O)N=C2C=CC=CN21 [Compound 35, 3,3-di(2-propinyl)imidazo[1,2-a]pyridin-2(3H)-one]",172 to 175 °C

# Next, values leading:
row,melting point,SMILES
1,> 300 °C,O=C1N=C2C=CC=CN2C1(Cc1ccc([N+](=O)[O-])cc1)Cc1ccc([N+](=O)[O-])cc1
2,246 to 248 °C,"O=C1N=C2C=CC(Cl)=CN2C1(Cc1ccccc1)Cc1ccccc1 [Compound 5, 3,3-dibenzyl-6-chloroimidazo[1,2-a]pyridin-2(3H)-one]"
3,240 to 241 °C,"O=C1N=C2C(OCc3ccccc3)=CC=CN2C1(Cc1ccccc1)Cc1ccccc1 [Compound 7, 3,3-dibenzyl-8-benzyloxyimidazo[1,2-a]pyridin-2(3H)-one]"
4,290 to 292 °C,"O=C1N=C2C=CC=CN2C1(Cc1ccc(F)cc1)Cc1ccc(F)cc1 [Compound 17, 3,3-bis(4-fluorobenzyl)imidazo[1,2-a]pyridin-2(3H)-one]"
5,> 300 °C,"CN(C)c1ccc(CC2(Cc3ccc(N(C)C)cc3)C(=O)N=C3C=CC=CN32)cc1 [Compound 18, 3,3-bis(4-dimethylaminobenzyl)imidazo[1,2-a]pyridin-2(3H)-one]"
6,248 to 251 °C,"COc1ccc(CC2(Cc3ccc(OC)cc3)C(=O)N=C3C=CC=CN32)cc1 [Compound 20, 3,3-bis(4-methoxybenzyl)imidazo[1,2-a]pyridin-2(3H)-one]"
7,> 300 °C,"O=C1N=C2C=CC=CN2C1(Cc1ccc(-c2ccccc2)cc1)Cc1ccc(-c2ccccc2)cc1 [Compound 21, 3,3-bis(4-biphenylmethyl)imidazo[1,2-a]pyridin-2(3H)-one]"
8,294 °C (dec.),"N#Cc1ccc(CC2(Cc3ccc(C#N)cc3)C(=O)N=C3C=CC=CN32)cc1 [Compound 22, 3,3-bis(4-cyanobenzyl)imidazo[1,2-a]pyridin-2(3H)-one]"
9,276.5 to 277.5 °C,"O=C1N=C2C=CC=CN2C1(Cc1ccc(O)cc1)Cc1ccc(O)cc1 [Compound 23, 3,3-bis(4-hydroxybenzyl)imidazo[1,2-a]pyridin-2(3H)-one]"
10,283 to 285 °C,"O=C1N=C2C(O)=CC=CN2C1(Cc1ccccc1)Cc1ccccc1 [Compound 36, 3,3-dibenzyl-8-hydroxyimidazo[1,2-a]pyridin-2(3H)-one]"
11,250 °C,"O=C1N=C2C(NCc3ccccc3)=CC=CN2C1(Cc1ccccc1)Cc1ccccc1 [Compound 37, 3,3-dibenzyl-8-benzylaminoimidazo[1,2-a]pyridin-2(3H)-one]"
12,283 to 285 °C,"NC1=CC=CN2C1=NC(=O)C2(Cc1ccccc1)Cc1ccccc1 [Compound 39, 8-amino-3,3-dibenzylimidazo[1,2-a]pyridin-2(3H)-one]"
